One test concerns C. albicans. Description: C. elegans-C. albicans co-inoculation assay, nematode survival. The test is classed as in vivo. The method, then: (§1) The procedure for the co-inoculation antifungal compound screen were conducted as previously described (Okoli et al., PLoS ONE, 4:e7025 (2009); Tampakakis et al., Nat Protocols, 3:1925-1931 (2008)), using the C. albicans strain DAY185 (Davis et al., Infect Immun, 68:5953-5959 (2000)) and the C. elegans glp-4;sek-1 double mutant.
This assay allows simultaneous assessment of a compound's potential toxicity and the ability to promote the survival of the nematode in the presence of C. albicans, including modes of action not traditionally considered in antifungal assays such as impeding a fungal virulence factor or promoting host immune response. We performed a screen of 2,560 natural products representing a fraction of the Analyiticon Discovery compound collection (ac-discovery.com) housed at the Broad Institute of Harvard and MIT (Cambridge, Mass.). […] These natural products identified in the primary screen were retested and confirmed (FIG. 1; Table 1). […] Moreover, although the antifungal effects of some of these saponins have been reported (Sata et al., Biosci Biotechnol Biochem, 62:1904-1911 (1998); Ohtani et al., Phytochem, 33:83-86 (1993)), their efficacy against Candida spp. has not been studied.
After confirmation of these hits, dose response experiments were conducted to determine the concentration that provided maximum nematode survival. The compounds conferred a range of nematode survival from 27% (compound A6) to 93% (compounds A2, A7, A24, and A25), however, with the exception of A6, all compounds conferred a nematode survival over 65% (FIG. 1).

Test [1] relates to C. albicans strain DAY185. Description: in vitro antifungal activity (MIC) in the co-inoculation assay, turbidity read visually. The settings on record: co-inoculation assay, two-fold serial dilutions, C. albicans DAY185. The format is cell-based. The method, then: as §1
The determination of the lowest concentration of the selected compounds showing in vitro antifungal activity was accomplished by following the steps detailed in the co-inoculation assay, using two-fold serial dilutions of the test compounds.

Structures are written as SMILES. In brackets after ≈: the same amount, converted by molar mass.

Take `CC1CC[C@@]2(OC1)O[C@H]1CC3C4C[C@@H](O)C5C[C@@H](O[C@@H]6O[C@H](CO)[C@H](O[C@@H]7O[C@H](CO)[C@@H](O)[C@H](O[C@@H]8OC[C@@H](O)[C@H](O)[C@H]8O)[C@H]7O[C@@H]7O[C@H](CO)[C@@H](O)[C@H](O)[C@H]7O)[C@H](O)[C@H]6O)[C@H](O)C[C@]5(C)C4CC[C@]3(C)[C@H]1[C@@H]2C` (stereo partly drawn) [A16, Aginoside]: the maximum nematode survival with C. albicans (dose response, C. albicans-infected C. elegans) was found to be 67%. In the test on C. albicans (dose that resulted in 50% survival of C. albicans-infected nematodes), this molecule showed an EC50 in vivo of 47.0 µg/mL (≈ 44 µM). Besides, in test [1], the MIC in vitro worked out at 47.0 µg/mL (≈ 44 µM).

Values taken from patent publication US8987217B2, “Modified saponins for the treatment of fungal infections” (The General Hospital Corporation, priority 2010, dated 2015).
